Consider 34 compounds from patent US20060074243A1, “Hydroxamic acid and amide compounds and their use as protease inhibitors” (Pharmacia Corporation, priority 2002, published 2006).

One assay concerns the target T1, Human recombinant MMP-14 (Homo sapiens, UniProt P50281).
T1 construct: The catalytic domain enzyme was expressed in E. coli inclusion bodies, solubilized in urea; made in house
In words: In vitro MMP inhibition analysis (fluorogenic peptide substrate cleavage), Ki. It is filed as biochemical. The settings on record: Table 2. The gist of the method: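 Refolded catalytic domain of MMP-14 expressed in E. coli, activated with APMA or trypsin, incubated 1 h at room temperature with 4 μM MCA-peptide substrate in Tris buffer pH 7.5 with CaCl2. Cleavage rate followed by fluorescence (ex 330/em 420 nm). Ki from Morrison-equation fit; substrate at or below Km, so no substrate correction.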

The target of another assay is T2, Human recombinant MMP-2 (Homo sapiens, UniProt P08253).
T2 construct: made in house; host or cells: MMP-2-transfected p2AHT2 cells
T2 sequence (P08253 110-660): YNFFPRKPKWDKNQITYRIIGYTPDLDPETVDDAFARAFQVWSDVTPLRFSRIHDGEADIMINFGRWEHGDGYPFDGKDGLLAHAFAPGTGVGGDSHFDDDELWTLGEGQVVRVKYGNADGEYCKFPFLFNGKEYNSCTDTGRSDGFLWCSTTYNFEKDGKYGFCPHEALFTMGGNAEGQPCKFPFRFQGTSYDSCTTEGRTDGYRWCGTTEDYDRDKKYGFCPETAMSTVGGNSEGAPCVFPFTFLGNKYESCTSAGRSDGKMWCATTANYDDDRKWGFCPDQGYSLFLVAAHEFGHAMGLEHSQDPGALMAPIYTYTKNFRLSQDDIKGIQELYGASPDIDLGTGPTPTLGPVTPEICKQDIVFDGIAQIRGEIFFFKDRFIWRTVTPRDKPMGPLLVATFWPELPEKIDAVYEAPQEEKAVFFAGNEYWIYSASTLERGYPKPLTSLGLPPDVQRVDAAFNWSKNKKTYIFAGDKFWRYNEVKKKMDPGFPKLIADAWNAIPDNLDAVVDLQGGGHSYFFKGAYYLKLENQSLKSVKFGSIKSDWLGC
Described as above. Format: biochemical. Particulars: Table 2. The essentials: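 Human recombinant MMP-2 from transfected p2AHT2 cells was activated with APMA or trypsin and incubated 1 h at room temperature with compounds and 4 μM MCA-RPLGL(Dpa)ARER-NH2. Buffer was pH 7.5 Tris/NaCl/CaCl2, and fluorescence was read at ex 330/em 420 nm. Ki was fitted by Morrison's equation without substrate correction.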

On to `COCCOc1ccc(-c2ccc(S(=O)(=O)C3(C(=O)NO)CCOCC3)cc2)cc1` [Example 70], for which the values for the Ki on Human recombinant MMP-14 and at Human recombinant MMP-2 were 299 nM and 0.177 nM, respectively.

For `CC[C@@H](C)NC(=O)c1ccc(-c2ccc(S(=O)(=O)C3(C(=O)NO)CCOCC3)cc2)nc1` [Example 207], the Ki (usually the dissociation constant of the complex between target and ligand, obtained from inhibition or displacement) at Human recombinant MMP-14 was over 10000 nM; on Human recombinant MMP-2 it was 4.99 nM.

`O=C(NO)C1(S(=O)(=O)c2ccc(-c3ccc(CCCC(F)(F)F)cn3)cc2)CC=CC1` [Example 202]: the inhibition constant (Ki) on Human recombinant MMP-14 came out at 1260 nM; on Human recombinant MMP-2 it was 0.32 nM.

On to `CN(C)C(=O)c1ccc2cc(-c3ccc(S(=O)(=O)C4(C(=O)NO)CCOCC4)cc3)ccc2c1` [Example 221], for which the Ki at Human recombinant MMP-14 is 6850 nM; on Human recombinant MMP-2, 5.61 nM.

On to `CCc1ccc(-c2ccc(S(=O)(=O)C3(C(=O)NO)CCOCC3)cc2)cc1` [Example 79], for which the inhibition constant (Ki) on Human recombinant MMP-14 came to 27.4 nM; at Human recombinant MMP-2, 0.184 nM.

With `O=C(CCc1nccs1)c1ccc(-c2ccc(S(=O)(=O)C3(C(=O)NO)CCOCC3)cc2)cc1` [Example 211], the Ki at Human recombinant MMP-14 is 773 nM; at Human recombinant MMP-2, 0.246 nM.

Consider `CC(C)NC(=O)c1ccc(-c2ccc(S(=O)(=O)C3(C(=O)NO)CCOCC3)cc2)nc1` [Example 204], for which the Ki at Human recombinant MMP-14 turned out to be 6370 nM; at Human recombinant MMP-2, 4.32 nM.

Turning to `CCC(C)COc1ccc(-c2ccc(S(=O)(=O)C3(C(=O)NO)CCOCC3)cc2)cc1C(F)(F)F` (centres unmarked) [Example 92], the Ki on Human recombinant MMP-14 stood at 7410 nM; on Human recombinant MMP-2, 58.1 nM.

As for `CCCCc1cnc(-c2ccc(S(=O)(=O)C3(C(=O)NO)CCN(CCOC)CC3)cc2)cn1` [Example 206], the Ki on Human recombinant MMP-14 was over 10000 nM; on Human recombinant MMP-2, 2.98 nM.

`C#CCN1CCC(C(=O)NO)(S(=O)(=O)c2ccc(-c3ccc(CCC(F)(F)C(F)(F)F)cn3)cc2)CC1` [Example 199]: the Ki on Human recombinant MMP-14 turned out to be 586 nM; at Human recombinant MMP-2 it was 0.085 nM.

Regarding `COc1ccc(Cc2cnc(-c3ccc(S(=O)(=O)C4(C(=O)NO)CCOCC4)cc3)cn2)cc1` [Example 182], the figures for the Ki at Human recombinant MMP-14 and on Human recombinant MMP-2 were over 10000 nM and 114 nM, respectively.

`O=C(NO)C1(S(=O)(=O)c2ccc(-c3ccccc3CO)cc2)CCOCC1` [Example 197]: the values for the Ki at Human recombinant MMP-14 and at Human recombinant MMP-2 were over 10000 nM and 6200 nM, respectively.

As for `CCCCc1ccc(-c2ccc(S(=O)(=O)C3(C(=O)NO)CCOCC3)cc2)nc1` [Example 89], the inhibitory constant (Ki) on Human recombinant MMP-14 worked out at 139 nM; on Human recombinant MMP-2, 0.0488 nM.

Regarding `CCCCNC(=O)c1ccc(-c2ccc(S(=O)(=O)C3(C(=O)NO)CCOCC3)cc2)nc1` [Example 203], the Ki turned out to be 7920 nM at Human recombinant MMP-14 and 1.77 nM on Human recombinant MMP-2.

`CC(C)CCNC(=O)c1cnc(-c2ccc(S(=O)(=O)C3(C(=O)NO)CCOCC3)cc2)cn1` [Example 185]: the Ki at Human recombinant MMP-14 turned out to be 2050 nM; at Human recombinant MMP-2 it was 0.91 nM.

On to `CC(C)N(C(=O)N1CCC(C(=O)NO)(S(=O)(=O)c2ccc(-c3ccc(CCC(F)(F)C(F)(F)F)cc3)cc2)CC1)C(C)C` [Example 174], for which the inhibitory constant (Ki) on Human recombinant MMP-14 turned out to be 1180 nM; on Human recombinant MMP-2 it was 1.24 nM.

With `O=C(NO)C1(S(=O)(=O)c2ccc(-c3cnc(CCCC(F)(F)F)cn3)cc2)CCN(C2CC2)CC1` [Example 218], the Ki on Human recombinant MMP-14 was over 10000 nM; at Human recombinant MMP-2, 1.93 nM.

With `COCCC(C(=O)NO)S(=O)(=O)c1ccc(-c2ccc(CCC(F)(F)C(F)(F)F)cc2)cc1` (centres unmarked) [Example 177], the Ki stood at 5860 nM at Human recombinant MMP-14 and 1.57 nM on Human recombinant MMP-2.

As for `CCCCc1ccc(-c2ccc(S(=O)(=O)C3(C(=O)NO)CCOCC3)cc2)cc1` [Example 91], the Ki on Human recombinant MMP-14 came out at 321 nM; at Human recombinant MMP-2 it was 0.374 nM.

Take `O=C(NO)C1(S(=O)(=O)c2ccc(-c3ccc(CCC(F)(F)C(F)(F)F)cn3)cc2)CCOCC1` [Example 201]: the Ki on Human recombinant MMP-14 amounted to 221 nM; at Human recombinant MMP-2, 0.045 nM.

Consider `CC(C)CNC(=O)c1cnc(-c2ccc(S(=O)(=O)C3(C(=O)NO)CCOCC3)cc2)cn1` [Example 186], for which the Ki turned out to be 4610 nM at Human recombinant MMP-14 and 2.33 nM on Human recombinant MMP-2.

`COC(=O)c1ccc2cc(-c3ccc(S(=O)(=O)C4(C(=O)NO)CCOCC4)cc3)ccc2c1` [Example 181]: the Ki at Human recombinant MMP-14 turned out to be 623 nM; at Human recombinant MMP-2, 0.272 nM.

`O=C(NO)C1(S(=O)(=O)c2ccc(-c3cnc(OCCCC(F)(F)F)cn3)cc2)CCOCC1` [Example 88]: the Ki on Human recombinant MMP-14 stood at 539 nM; on Human recombinant MMP-2 it was 0.15 nM.

On to `O=C(NO)C1(S(=O)(=O)c2ccc(-c3cnc4ccccc4n3)cc2)CCOCC1` [Example 194], for which the Ki on Human recombinant MMP-14 was over 10000 nM; on Human recombinant MMP-2 it was 176 nM.

For the compound `COC/C(Cl)=C/c1cnc(-c2ccc(S(=O)(=O)C3(C(=O)NO)CCOCC3)cc2)cn1` [Example 165], the Ki on Human recombinant MMP-14 is 1110 nM; at Human recombinant MMP-2, 2.46 nM.

As for `CCCc1ccc(-c2ccc(S(=O)(=O)C3(C(=O)NO)CCOCC3)cc2)cc1` [Example 87], the inhibition constant Ki on Human recombinant MMP-14 is 62.3 nM; on Human recombinant MMP-2, 0.158 nM.

As for `CCNc1cnc(-c2ccc(S(=O)(=O)C3(C(=O)NO)CCOCC3)cc2)cn1` [Example 93], the values for the Ki at Human recombinant MMP-14 and at Human recombinant MMP-2 were 4450 nM and 4.16 nM, respectively.

As for `O=C(NO)C1(S(=O)(=O)c2ccc(-c3ccc4c(c3)OCO4)cc2)CCOCC1` [Example 188], the Ki is 27.1 nM at Human recombinant MMP-14 and 0.13 nM on Human recombinant MMP-2.

For `CCCCOc1ccc(-c2ccc(S(=O)(=O)C3(C(=O)NO)CCOCC3)cc2)cc1` [Example 77], the Ki is 174 nM at Human recombinant MMP-14 and 0.18 nM at Human recombinant MMP-2.

As for `O=C(NO)C1(S(=O)(=O)c2ccc(-c3cnc(OCC4CC4)cn3)cc2)CCOCC1` [Example 168], the inhibition constant Ki amounted to 46.2 nM at Human recombinant MMP-14 and 0.08 nM at Human recombinant MMP-2.

Turning to `O=C(NO)C1(S(=O)(=O)c2ccc(-c3ccc(OCC(F)(F)C(F)F)c(C(F)(F)F)c3)cc2)CCOCC1` [Example 85], the Ki is 2800 nM at Human recombinant MMP-14 and 33.4 nM at Human recombinant MMP-2.

On to `C#CCN(C)C(=O)c1ccc2cc(-c3ccc(S(=O)(=O)C4(C(=O)NO)CCOCC4)cc3)ccc2c1` [Example 216], for which the figures for the inhibition constant Ki at Human recombinant MMP-14 and at Human recombinant MMP-2 were 2550 nM and 2.51 nM, respectively.

Turning to `O=C(Cc1ccc(-c2ccc(S(=O)(=O)C3(C(=O)NO)CCOCC3)cc2)nc1)N1CCCCC1` [Example 212], the inhibition constant (Ki) is over 10000 nM on Human recombinant MMP-14 and 34.7 nM on Human recombinant MMP-2.

Consider `CCCCOc1ccc(-c2ccc(S(=O)(=O)C3(C(=O)NO)CCOCC3)cc2)cc1C(F)(F)F` [Example 78], for which the Ki on Human recombinant MMP-14 is 9570 nM; at Human recombinant MMP-2 it was 55.5 nM.
